In PubChem BioAssay (NCI):
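A five-concentration, 48-hour dose response in 96-well plates underlies each endpoint, interpolated linearly between surrounding concentrations. At the TGI there is no net growth.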

Assays:
Assay in all cases: NCI tumour cell line growth inhibition, 48 h
T-47D breast = test system: T-47D breast
SK-MEL-2 melanoma = test system: SK-MEL-2 melanoma
BT-549 breast = test system: BT-549 breast
UACC-62 melanoma = test system: UACC-62 melanoma
SW-620 colon = test system: SW-620 colon
OVCAR-4 ovarian = test system: OVCAR-4 ovarian
MDA-MB-435 = test system: MDA-MB-435
MCF7 breast = test system: MCF7 breast
A549 NSCLC = test system: A549 NSCLC
SN12C renal = test system: SN12C renal
HT29 colon = test system: HT29 colon
ACHN renal = test system: ACHN renal
KM12 colon = test system: KM12 colon
HCC-2998 colon = test system: HCC-2998 colon
RPMI-8226 leukemia = test system: RPMI-8226 leukemia
SNB-19 CNS = test system: SNB-19 CNS
MALME-3M melanoma = test system: MALME-3M melanoma
COLO 205 colon = test system: COLO 205 colon
786-0 renal = test system: 786-0 renal
UO-31 renal = test system: UO-31 renal
SK-OV-3 ovarian = test system: SK-OV-3 ovarian
M14 melanoma = test system: M14 melanoma
K-562 leukemia = test system: K-562 leukemia
NCI-H522 lung = test system: NCI-H522 lung
UACC-257 melanoma = test system: UACC-257 melanoma
EKVX NSCLC = test system: EKVX NSCLC
SK-MEL-28 melanoma = test system: SK-MEL-28 melanoma
U251 CNS = test system: U251 CNS
HCT-15 colon = test system: HCT-15 colon
DU-145 prostate = test system: DU-145 prostate
SF-295 CNS = test system: SF-295 CNS
MDA-MB-231 breast = test system: MDA-MB-231 breast
RXF 393 renal = test system: RXF 393 renal
SF-268 CNS = test system: SF-268 CNS
NCI-H226 lung = test system: NCI-H226 lung
TK-10 renal = test system: TK-10 renal
HOP-92 NSCLC = test system: HOP-92 NSCLC
SR leukemia = test system: SR leukemia
OVCAR-3 ovarian = test system: OVCAR-3 ovarian
OVCAR-8 ovarian = test system: OVCAR-8 ovarian
NCI-H23 lung = test system: NCI-H23 lung
SF-539 CNS = test system: SF-539 CNS
MOLT-4 leukemia = test system: MOLT-4 leukemia
PC-3 prostate = test system: PC-3 prostate
A498 renal = test system: A498 renal
SK-MEL-5 melanoma = test system: SK-MEL-5 melanoma
SNB-75 CNS = test system: SNB-75 CNS
LOX IMVI melanoma = test system: LOX IMVI melanoma
HL-60(TB) leukemia = test system: HL-60(TB) leukemia
IGROV1 ovarian = test system: IGROV1 ovarian
NCI-H460 lung = test system: NCI-H460 lung
OVCAR-5 ovarian = test system: OVCAR-5 ovarian
HOP-62 NSCLC = test system: HOP-62 NSCLC
CCRF-CEM leukemia = test system: CCRF-CEM leukemia
MDA-N = test system: MDA-N
CAKI-1 renal = test system: CAKI-1 renal
HCT-116 colon = test system: HCT-116 colon
NCI/ADR-RES ovarian = test system: NCI/ADR-RES ovarian
HS 578T breast = test system: HS 578T breast

CC(C)(C)OCC1NC(=O)[C@@H]2Cc3c([nH]c4ccccc34)C(c3ccccc3)N2C1=O (some centres undefined)
TGI (T-47D breast): > 50 µM
TGI (SK-MEL-2 melanoma): > 50 µM
TGI (BT-549 breast): > 50 µM
TGI (UACC-62 melanoma): > 50 µM
TGI (SW-620 colon): > 50 µM
TGI (OVCAR-4 ovarian): > 50 µM
TGI (MDA-MB-435): > 50 µM
TGI (MCF7 breast): > 50 µM
TGI (A549 NSCLC): > 50 µM
TGI (SN12C renal): > 50 µM
TGI (HT29 colon): > 50 µM
TGI (ACHN renal): > 50 µM
TGI (KM12 colon): > 50 µM
TGI (HCC-2998 colon): > 50 µM
TGI (RPMI-8226 leukemia): > 33.7 µM
TGI (SNB-19 CNS): > 50 µM
TGI (MALME-3M melanoma): > 50 µM
TGI (COLO 205 colon): > 50 µM
TGI (786-0 renal): > 50 µM
TGI (UO-31 renal): > 50 µM
TGI (SK-OV-3 ovarian): > 50 µM
TGI (M14 melanoma): > 50 µM
TGI (K-562 leukemia): > 50 µM
TGI (NCI-H522 lung): > 50 µM
TGI (UACC-257 melanoma): > 50 µM
TGI (EKVX NSCLC): > 50 µM
TGI (SK-MEL-28 melanoma): > 50 µM
TGI (U251 CNS): > 50 µM
TGI (HCT-15 colon): > 50 µM
TGI (DU-145 prostate): > 50 µM
TGI (SF-295 CNS): > 50 µM
TGI (MDA-MB-231 breast): > 50 µM
TGI (RXF 393 renal): > 50 µM
TGI (SF-268 CNS): > 50 µM
TGI (NCI-H226 lung): > 50 µM
TGI (TK-10 renal): > 50 µM
TGI (HOP-92 NSCLC): > 50 µM
TGI (SR leukemia): > 33 µM
TGI (OVCAR-3 ovarian): > 50 µM
TGI (OVCAR-8 ovarian): > 50 µM
TGI (NCI-H23 lung): > 50 µM
TGI (SF-539 CNS): > 50 µM
TGI (MOLT-4 leukemia): > 32.7 µM
TGI (PC-3 prostate): > 50 µM
TGI (A498 renal): > 50 µM
TGI (SK-MEL-5 melanoma): > 50 µM
TGI (SNB-75 CNS): > 50 µM
TGI (LOX IMVI melanoma): > 50 µM
TGI (HL-60(TB) leukemia): > 50 µM
TGI (IGROV1 ovarian): > 50 µM
TGI (NCI-H460 lung): > 50 µM
TGI (OVCAR-5 ovarian): > 50 µM
TGI (HOP-62 NSCLC): > 50 µM
TGI (CCRF-CEM leukemia): > 50 µM
TGI (MDA-N): > 50 µM
TGI (CAKI-1 renal): > 50 µM
TGI (HCT-116 colon): > 50 µM
TGI (NCI/ADR-RES ovarian): > 50 µM
TGI (HS 578T breast): > 50 µM
